Results published in paper PMC11187126, “Structure and dynamics of the pyroglutamylated RF-amide peptide QRFP receptor GPR103” (Nature Communications, 2024).
Where two headings read alike, the source gives them in different places. No end group written: not given here.

Target: T1, GPR103 Q318^7.39A (Homo sapiens, UniProt Q96P65, Q318A)
T1 construct: we used human full-length QRFPR-encoding plasmids; expressed in transfected cells; host or cells: HEK293 cells (HEK293A in the flow cytometry section), pCAGGS vector
T1 sequence (Q96P65 1-431 Q318A): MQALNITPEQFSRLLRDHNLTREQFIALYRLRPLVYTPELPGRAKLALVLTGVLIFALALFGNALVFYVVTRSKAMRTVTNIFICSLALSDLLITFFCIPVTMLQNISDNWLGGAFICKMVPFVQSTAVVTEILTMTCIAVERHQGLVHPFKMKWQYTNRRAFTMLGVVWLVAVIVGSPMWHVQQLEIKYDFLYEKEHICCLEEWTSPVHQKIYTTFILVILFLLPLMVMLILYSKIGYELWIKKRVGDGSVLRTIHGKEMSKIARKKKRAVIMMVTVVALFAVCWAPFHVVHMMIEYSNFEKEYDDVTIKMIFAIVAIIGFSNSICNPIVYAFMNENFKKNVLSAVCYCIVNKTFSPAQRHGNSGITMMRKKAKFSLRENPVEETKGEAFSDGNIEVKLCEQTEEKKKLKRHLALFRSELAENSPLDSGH
Experiment: TGFα shedding assay; Exp. level WT (1:50)
Assay type: cell-based

TSGPLGNLAEELNGYSRKKGGFSFRF-NH2 [QRFP26]
Emax (Exp. #1): 14.85 % WT
Emax (Exp. #2): 10.08 % WT
Emax (Exp. #3): 10.26 % WT
Emax (mean, read-out: Emax): 11.7%
EC50 (n = 3): 85.1 nM
Emax (n = 3, read-out: Emax): 11.7 ± 1.3%
